Data on one compound can be found in patent publication US7833795B2, “Assessment of cardiovascular risk using isoprostane biomarkers and COX-2 selective inhibitors” (The Trustees of the University of Pennsylvania, priority 2004, dated 2010).

Molecules are shown by their SMILES.

For data set [1], the system named is Male Fisher 344 rats. In words: Urinary MDA by HPLC with spectrophotometry. In kind it is in vivo, rat. The conditions noted are these: for MDA (by HPLC with spectrophotometry): urine. The method, then:
(§1) Animals and treatment protocol: Male Fisher 344 rats (260-280 g) obtained from Charles River Laboratories (Raleigh, N.C.) were used in all experiments. The animals were housed three to a cage. Autoclaved hardwood bedding was used in solid-bottom polycarbonate cages with filter tops. Animal rooms were maintained at 20-25° C. with 35-70% relative humidity with alternating 12-hour light and dark cycles. The rats had free access to deionized, reverse-osmosis-treated water and received autoclaved NIH 31 rodent chow (Zeigler Bros., Gardners, Pa.) ad libitum. For all experiments, rats were fasted overnight and then administered intraperitoneal injections of carbon tetrachloride in canola oil. Control rats received an equal volume of canola oil. Fasting continued throughout the experiment. Rats were anesthetized with Nembutal (0.1 ml/100 g body weight) and 5 ml blood was removed from the dorsal aorta proximal to its bifurcation into the common iliac arteries.
Indomethacin pretreatment: The indomethacin regimen used has been previously shown to inhibit COX activity in rats by 90% (dose of 5 mg/kg s.c. 24 hours, 12 hours, and 2 hours prior to the injection of CCl4) (Jackson, 1989, J. Pharmacol. Exp. Ther. 250: 9-21). An additional booster dose was injected 8 hours after the last injection of CCl4 for the measurements performed 16 hours after treatment with CCl4.
Meclofenamic acid pretreatment: Meclofenamic acid was injected at a dose of 5 mg/kg i.p. 12 h and 2 h prior to the injection of CCl4.
(§2) Carbon tetrachloride (CCL4) treatment: Animals from each of the three dose groups (Control-canola oil, 120 mg/kg CCl4 i.p. and 1200 mg/kg CCl4 i.p.) were investigated at three time points (2, 7, and 16 hours after CCl4 injection). Indomethacin-pretreated rats were also investigated at the same three time points, and the meclofenamic acid-pretreated rats were investigated at one time point (7 hours). Each group consisted of five rats for each analysis, except the meclofenamic acid pretreatment group which consisted of six rats. Animal treatment, sample preparation, assessment of liver histology and serum enzyme activities are described elsewhere (Kadiiska et al., 2000, Free Radic. Biol. Med. 28: 838-845; Jackson, 1989, J. Pharmacol. Exp. Ther. 250: 9-21) and were carried out at NIEHS, Research Triangle Park, N.C.
(§3) Urine sample preparation: The day prior to treatment, both experimental and control animals were placed in stainless steel metabolic cages especially designed for urine collection. For Experimental Example 2, animals were placed in metabolic cages immediately after the last injection of indomethacin or meclofenamic acid. Urine was collected (in dark vials) from the animals during the following intervals: 2 to 7 hours and 7 to 16 hours after CCl4 or canola oil (controls) treatment. Urine samples from indomethacin-pretreated rats were collected from 2 to 7 hours and 7 to 16 hours after the injection of CCl4, whereas samples from meclofenamic-acid-pretreated rats were collected only from 2 to 7 hours after the injection. All urine samples were immediately frozen on dry ice and stored at −70° C.
Urinary MDA was analyzed using high pressure liquid chromatography (HPLC). To 500 μl urine samples, 25 μl BHT and 750 μl 0.5% TBA solution were added, in this order. Samples were incubated at 60° C. for 60 minutes. After cooling, chloroform (750 μl) was added and mixed well. Following centrifugation, the aqueous layer was removed and used for HPLC analysis (column […]; mobile phase, 6:4(v/v) 0.04 M acetate buffer (pH 5.5)/MeOH; detection, 532 nm). The procedure was developed and performed by OXIS Research, Portland, Oreg.

The subject of data set [2] is Male Fisher 344 rats. In words: Urinary 8-OHdG by immunoassay. In kind it is in vivo, rat. The settings on record: for 8-OHdG (by immunoassay): urine. The procedure:
as §1, §2, §3
8-Hydroxy-2′-deoxyguanosine (8-OHdG) was measured using an immunoassay. In brief, 8-OHdG was determined using a microtiter ELISA method where the test analyte competed with monoclonal antibody against 8-OHdG for 8-OHdG bound to the plate. After incubation and washing, an anti-mouse second antibody conjugated to horseradish peroxidase was used to determine the bound monoclonal antibody. The color yield is […] to the analyte concentration. Data reduction was by 4-parameter logistic curve fit. The assay was developed and measurements were performed by Oxis Research, Portland, Oreg.

For the compound `ClC(Cl)(Cl)Cl` [CCl4, Carbon tetrachloride], the “MDA (by HPLC with spectrophotometry)” value with Male Fisher 344 rats [1] (CCl4 120 mg/kg i.p., 7 h) is given as 2.01 nmol/mg creatinine; in the data set on Male Fisher 344 rats [1] (CCl4 120 mg/kg i.p., 16 h), 1.54 nmol/mg creatinine; in the data set with Male Fisher 344 rats [1] (CCl4 1200 mg/kg i.p., 7 h), 2.61 nmol/mg creatinine; with Male Fisher 344 rats [1] (CCl4 1200 mg/kg i.p., 16 h), 2.16 nmol/mg creatinine. Also, the “increase of urinary MDA” value with Male Fisher 344 rats [1] (higher dose of CCl4, urine collected 7 hours after treatment) amounted to 3 fold. Further, the “8-OHdG (by immunoassay)” value in the data set on Male Fisher 344 rats [2] (CCl4 120 mg/kg i.p., 7 h) is reported as 42 ng/mg creatinine; in the data set with Male Fisher 344 rats [2] (CCl4 120 mg/kg i.p., 16 h), 83 ng/mg creatinine; in the data set with Male Fisher 344 rats [2] (CCl4 1200 mg/kg i.p., 7 h), 165 ng/mg creatinine; in the data set on Male Fisher 344 rats [2] (CCl4 1200 mg/kg i.p., 16 h), 60 ng/mg creatinine. The “increase of urinary 8-OHdG” value with Male Fisher 344 rats [2] (high dose CCl4, 7 h) is 7 fold; with Male Fisher 344 rats [2] (high dose CCl4, 16 h), 3 fold.
